Here are results for one compound from patent US20240124470A1, “FIVE-MEMBERED RING DERIVATIVE AND MEDICAL USE THEREOF” (SICHUAN HAISCO PHARMACEUTICAL CO., LTD., priority 2020, published 2024).

Like-named read-outs stand apart in the source and are kept apart here.

The target in one data set is T1, CYP3A4-M (Homo sapiens, UniProt P08684).
T1 construct: pre-incubated with the human liver microsome solutions containing 5 enzyme mixed substrates; from tissue; host or cells: human liver microsomes
Description: Cytochrome P450 isoenzyme inhibition test, human liver microsomes: CYP3A4-M. Format: in vitro ADME. The settings on record: human liver microsomes 0.1 mg/mL; read-out: IC50, inhibitory activity on CYP3A4-M. The protocol:
(§1) 9. Cytochrome P450 Isoenzyme Inhibition Test Experimental objective: The inhibitory effect of the test compound on the activity of human liver microsomal cytochrome P450 isoenzyme (CYP1A2, CYP2C19, CYP2D6 and CYP3A4) was determined. Experimental operation: The test compound at an incubation concentration of 0, 0.03, 0.1, 0.3, 1, 3, 10, 30 and 100 μM was pre-incubated with the human liver microsome solutions containing 5 enzyme mixed substrates (liver microsome concentration: 0.1 mg/mL) in a water bath at 37° C. for 10 min, respectively, and then a coenzyme factor (NADPH) was added to start the reaction. After incubation in a water bath at 37° C. for 10 min, the reaction was terminated by adding glacial acetonitrile solution containing an internal standard, shaken for 1 min, centrifuged at 4° C. and 10,000 rpm for 10 min, and the supernatant was taken for LC/MS/MS analysis. The amount of metabolites produced by each CYP enzyme substrate was detected. The activity of each CYP isoenzyme was reflected by the production rate of each metabolite. […]

The next data set concerns the target T2, CYP2C19 (Homo sapiens, UniProt P33261).
T2 construct: pre-incubated with the human liver microsome solutions containing 5 enzyme mixed substrates; from tissue; host or cells: human liver microsomes
Description: Cytochrome P450 isoenzyme inhibition test, human liver microsomes: CYP2C19. To be noted: human liver microsomes 0.1 mg/mL; read-out: IC50, inhibitory activity on CYP2C19. The data set is classed as in vitro ADME. The method, then:
as §1

Data set [1] in a line: Evaluation of pharmacokinetics in mice. The data set is classed as in vivo. To be noted: male, mouse, plasma, oral; C57 mice, intravenous 5 mg/kg and intragastric 20 mg/kg. The method, then: Evaluation of Pharmacokinetics in Mice
Male C57 mice (purchased from Hunan SJA Laboratory Animal Co., Ltd, license number: SCXK (Xiang) 2019-0004), 20-25 g, were fasted overnight. On the day of the experiment, 18 male C57 mice were divided into 2 groups, with 9 mice in each group. The test compound was administered intravenously and intragastrically at doses of 5 mg/kg and 20 mg/kg respectively. Before administration and 5 min, 15 min, 30 min, 1 h, 2 h, 4 h, 6 h, 8 h and 24 h after administration, 0.1 ml of blood was collected from the orbital venous plexus, placed in an EDTAK2 centrifuge tube, and centrifuged at 6000 rpm at 4° C. for 5 min, and then the plasma was collected. The plasma sample was added to an acetonitrile solution containing an internal standard (dexamethasone, 500 ng/mL), vortexed and centrifuged at 10,000 rpm for 10 min, and the supernatant was taken for LC-MS/MS analysis. Pharmacokinetic parameters were calculated using the non-compartmental model in WinNonlin Version 8.0 (Pharsight, Mountain View, CA) pharmacokinetic software.

Another data set addresses T3, CYP1A2 (Homo sapiens, UniProt P05177).
T3 construct: pre-incubated with the human liver microsome solutions containing 5 enzyme mixed substrates; from tissue; host or cells: human liver microsomes
T3 sequence (P05177 1-516): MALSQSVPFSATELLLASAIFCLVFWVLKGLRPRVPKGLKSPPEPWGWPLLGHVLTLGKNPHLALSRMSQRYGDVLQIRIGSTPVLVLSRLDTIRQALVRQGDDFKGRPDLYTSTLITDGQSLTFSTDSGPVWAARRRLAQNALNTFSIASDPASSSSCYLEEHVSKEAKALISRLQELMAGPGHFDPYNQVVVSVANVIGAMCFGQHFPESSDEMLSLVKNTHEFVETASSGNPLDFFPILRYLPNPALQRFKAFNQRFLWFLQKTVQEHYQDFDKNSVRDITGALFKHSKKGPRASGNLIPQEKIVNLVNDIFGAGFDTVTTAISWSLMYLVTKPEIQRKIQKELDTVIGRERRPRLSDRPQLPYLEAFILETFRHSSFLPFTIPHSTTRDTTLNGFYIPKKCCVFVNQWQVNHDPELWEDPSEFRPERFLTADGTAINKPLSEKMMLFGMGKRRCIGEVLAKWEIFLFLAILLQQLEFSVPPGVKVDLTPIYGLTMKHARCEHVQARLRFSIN
Description: Cytochrome P450 isoenzyme inhibition test, human liver microsomes: CYP1A2. The data set is classed as in vitro ADME. The settings on record: human liver microsomes 0.1 mg/mL; read-out: IC50, inhibitory activity on CYP1A2. The protocol: as §1

The target of another data set is T4, GLP-1 receptor (Homo sapiens, UniProt P43220).
T4 construct: expressed in transfected cells
T4 sequence (P43220 24-463): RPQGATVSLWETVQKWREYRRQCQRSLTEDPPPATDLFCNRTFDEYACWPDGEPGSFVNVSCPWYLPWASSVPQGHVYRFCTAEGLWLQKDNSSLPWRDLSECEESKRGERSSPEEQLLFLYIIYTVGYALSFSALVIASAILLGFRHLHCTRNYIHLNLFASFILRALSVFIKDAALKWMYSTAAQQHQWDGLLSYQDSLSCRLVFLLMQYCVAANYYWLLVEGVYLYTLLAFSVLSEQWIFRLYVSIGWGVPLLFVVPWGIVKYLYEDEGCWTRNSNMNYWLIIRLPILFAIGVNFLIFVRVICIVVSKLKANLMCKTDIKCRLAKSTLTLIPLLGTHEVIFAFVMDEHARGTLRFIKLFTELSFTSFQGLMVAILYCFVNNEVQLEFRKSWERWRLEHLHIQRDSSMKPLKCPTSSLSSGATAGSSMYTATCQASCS
Description: HEK293/CRE-luc/GLP-1R cell luciferase reporter test (agonistic effect on GLP-1 receptor). The data set is classed as cell-based. The settings on record: HEK293/CRE-luc/GLP-1R cells. The method, then: 1. HEK293/CRE-luc/GLP-1β cell viability
Cell: HEK293/CRE-luc/GLP-1R
Cell culture medium: DMEM+10% FBS+400 μg/ml G418+100 μg/ml Hygromycin B
Frozen stock solution: 90% FBS, 10% (V/V) DMSO
Detection buffer: DMEM+1% FBS
Cells were cultured in DMEM medium+10% FBS+400 μg/ml G418+100 μg/ml Hygromycin B in a CO2 incubator at 37° C., and passaged once every 3-4 days.
Cell plating: Trypsinization adjusted the cell density to 1.67×10^5 cells/mL; 60 μL of cells per well (10000 cells/well) was inoculated in a 384-well plate containing compounds; A NC well (negative control) and a background well (no cells) were set. Incubation was performed for about 18+2 h in the incubator.
Compounds were serially diluted with the detection buffer, and the detection concentration was 0.01 nM-1000 nM.
The cell culture plate was removed and all supernatant was aspirated from the cells. The cells were washed gently 2 times with 1×PBS.
The diluted compound was added to a 384-well plate (10 μL/well), and three replicate wells were set for each concentration. 10 μL of the detection buffer was added to the NC well, sealed and incubated at 37° C. for 6 hours.
The plate was removed, the cells were allowed to equilibrate to room temperature (at least 15 min), and then all supernatant was aspirated from the cells.
Steady-Glo® Reagent was added to the sample well at 10 μL/well and incubated at room temperature for 5 min to lyse the cells.
The test results were read with a BMG microplate reader.
The mean background value was calculated.
The induction factor (Fold of induction, FI)=(induction well value−background value)/(negative control well value −background value) was calculated.
The EC50 value of the sample was calculated using Graphpad Prim 8.0 software using four-parameter fitting analysis.
Mean and standard error (Mean±SEM) were calculated for all results and Graphpad Prism software was used for statistical analysis. Specific data were presented in the form of graphs. P<0.05 was considered to be statistically different.

T2 sequence (P33261 whole entry): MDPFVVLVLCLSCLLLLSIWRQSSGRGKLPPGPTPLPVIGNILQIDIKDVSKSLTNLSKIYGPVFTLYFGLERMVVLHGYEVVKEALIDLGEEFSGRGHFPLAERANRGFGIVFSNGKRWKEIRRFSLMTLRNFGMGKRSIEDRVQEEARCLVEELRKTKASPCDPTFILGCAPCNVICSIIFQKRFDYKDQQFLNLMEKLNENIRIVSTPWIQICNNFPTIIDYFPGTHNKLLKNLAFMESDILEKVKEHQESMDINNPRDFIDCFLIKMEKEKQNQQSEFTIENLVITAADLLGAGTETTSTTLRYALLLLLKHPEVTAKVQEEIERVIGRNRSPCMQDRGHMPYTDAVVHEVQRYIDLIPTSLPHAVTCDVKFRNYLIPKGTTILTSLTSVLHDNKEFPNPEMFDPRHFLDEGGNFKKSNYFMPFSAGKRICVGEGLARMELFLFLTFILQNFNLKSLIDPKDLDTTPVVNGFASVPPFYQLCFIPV
T1 sequence (P08684 whole entry): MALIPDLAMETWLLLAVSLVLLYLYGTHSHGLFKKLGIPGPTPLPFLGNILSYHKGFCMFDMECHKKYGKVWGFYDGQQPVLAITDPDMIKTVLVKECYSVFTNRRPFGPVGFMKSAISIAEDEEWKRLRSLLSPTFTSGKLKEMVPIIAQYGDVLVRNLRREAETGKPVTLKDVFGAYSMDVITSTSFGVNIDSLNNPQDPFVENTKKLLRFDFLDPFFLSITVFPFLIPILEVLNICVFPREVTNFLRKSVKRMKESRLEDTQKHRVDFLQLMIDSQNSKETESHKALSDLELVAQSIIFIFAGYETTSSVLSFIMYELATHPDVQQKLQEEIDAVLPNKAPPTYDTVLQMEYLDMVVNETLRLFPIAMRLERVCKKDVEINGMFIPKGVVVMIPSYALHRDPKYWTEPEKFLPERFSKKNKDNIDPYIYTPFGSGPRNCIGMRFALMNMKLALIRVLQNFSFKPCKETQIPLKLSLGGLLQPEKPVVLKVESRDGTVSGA

Consider `N#Cc1ccc(COc2cccc(-c3ccc(Cc4nc5sc(C(=O)O)cc5n4C[C@@H]4CCO4)c(F)c3)n2)c(F)c1` [Compound 6, (S)-2-(4-(6-((4-cyano-2-fluorobenzyl)oxy)pyridin-2-yl)-2-fluorobenzyl)-1-(oxetan-2-ylmethyl)-1H-thieno[2,3-d]imidazole-5-carboxylic acid], for which the IC50 at CYP3A4-M, on CYP2C19 and on CYP1A2 was more than 50 µM in each case. The same compound returned a bioavailability in data set [1] of more than 25%. The EC50 at GLP-1 receptor (6 hours incubation, class symbols, read-out: EC50) is less than 0.01 µM; on GLP-1 receptor (bound stated, read-out: EC50 value), less than 0.01 µM.
